In US7767665B2, “1,3-benzothiazinone derivatives and use thereof” (Takeda Pharmaceutical Company Limited, priority 2001, dated 2010):
Counter-ions that a name gives are not always drawn.

Key:
[1] = system: primary heart muscle cells from newborn rats; test: Inhibitory activity on heart muscle cell apoptosis (serum-free culture, viable cell number by WST-8); assay type: cell-based, Wister rats; details: Rattus norvegicus, 96 h; mean of three independent experiments; concentration required to increase the mean viable cell number by 50% as compared with that in the absence of test compounds; serum-free Medium 199, 4 days
From the text: Inhibitory Activity on Heart Muscle Cell Apoptosis
Newborn rats (within 1 day afterbirth) were obtained from pregnant Wister rats purchased from Charles River, anesthetized under ether, and sterilized with 70% ethanol, and then their hearts were excised with tweezers. The excised hearts were washed with a phosphate-buffered physiological saline (T900; Takara) and cut into pieces with surgical scissors. These tissue pieces were washed 4 to 5 times with a phosphate-buffered physiological saline to remove a majority of blood-derived non-heart muscle cells. To the tissue pieces derived from 10 newborns, 5 ml of enzyme solution (1.25 mg trypsin (Difco) and 0.25 mg collagenase (Sigma) per ml of phosphate-buffered saline (PBS)) was added and the mixture was stirred with a stirrer at 37° C. for 15 minutes. Another 2.5 ml enzyme solution was then added twice repeatedly at a 15-minutes interval. Then, Medium 199 (Gibco) containing 10% fetal calf serum (Biowiker) was added in a half volume of the enzyme solution to terminate the enzyme reaction. The cells were filtered through a Cell Strainer (Falcon) and then centrifuged at 400×g for 5 minutes, whereby the cells were collected.
The cells thus collected from 10 newborns were suspended in 50 ml Medium 199 containing 10% fetal calf serum, plated onto 100 mm Petri dishes (Iwaki) in a volume of 10 ml/dish and cultured for 1 hour in a CO2 incubator set at 5% CO2 and 37° C. The cells were then recovered, filtered through a Cell Strainer and centrifuged at 400×g for 5 minutes to collect the primary heart muscle cells derived from newborn rats.
Then, the heart muscle cells from 10 newborn rats were suspended in 2 ml low-isotonic solution (prepared by dissolving 8.29 g NH4Cl, 1.0 g KHCO3, 37 mg EDTA/2Na (ethylenediaminetetraacetic acid disodium) (Dojindo) in 1 L of water) and left for 3 minutes to disrupt erythrocytes. After 10 ml Medium 199 containing 10% fetal calf serum was added thereto, the primary heart muscle cells from newborn rats were collected by centrifugation at 400×g for 5 minutes. The cells were suspended in Medium 199 containing 10% fetal calf serum and then filtered through a cell strainer. After 0.3% trypan blue was added to, and mildly mixed with, an aliquot of the resulting cell suspension, the number of heart muscle cells was counted on an erythrocyte counting plate.
The primary heart muscle cells from newborn rats were suspended at a density of 3×10^6 cells/ml in Medium 199 containing 10% fetal calf serum, put onto a 96-well plate in a volume of 0.1 ml/well, and then cultured in a CO2 incubator set at 5% CO2 and 37° C. After the plate was stirred with a micromixer (Taiyo Kagaku Kogyo), the medium was exchanged 3 times with serum-free Medium 199, and then test compounds were added thereto. The cells were cultured for additional 4 days to induce apoptosis. Then, fetal calf serum was added thereto at a concentration of 10%, and the cells were further cultured for about 17 hours in a CO2 incubator set at 5% CO2 and 37° C. Finally, the number of viable cells was determined with Cell Counting Kit (Dojindo) using WST-8 (2-(2-methoxy-4-nitrophenyl)-3-(4-nitrophenyl)-5-(2,4-disulfophenyl)-2H-tetrazolium, monosodium salt) as the coloring substrate to determine the inhibition of the heart muscle cell apoptosis.
The above-mentioned experiment was triplicated in an independent manner.
The Mean minimal effective concentration (±SD) was shown for each test compound (Compounds 1 to 5 obtained in Reference Examples) in Table 1. In Table 1, the minimal effective concentration is defined as the concentration required to increase the mean viable cell number by 50% as compared with that in the absence of test compounds.

Row | melting point | SMILES | minimal effective concentration [1] [µM]
1 | 138.3 to 140 °C | CCCOc1cccc(-c2nc(=O)c3ccccc3s2)n1 [Example 58, 2-(6-Propoxy-2-pyridyl)-4H-1,3-benzothiazine-4-one] | 0.091
2 | 137 to 137.9 °C | COC(=O)c1ccccc1Sc1cc(-c2nc(=O)c3ccccc3s2)ccn1 [Example 77, methyl 2-{[4-(4-oxo-4H-1,3-benzothiazin-2-yl)-2-pyridyl]thio}benzoate] | 0.039
3 | 159.6 to 159.8 °C | COCOCc1cccc(-c2nc(=O)c3ccccc3s2)n1 [Example 65, 2-[(6-Methoxymethoxymethyl)-2-pyridyl]-4H-1,3-benzothiazine-4-one] | 0.045
4 | 161.3 to 162 °C | CCSc1cccc(-c2nc(=O)c3ccccc3s2)n1 [Example 126, 2-[6-(Ethylthio)-2-pyridyl]-4H-1,3-benzothiazine-4-one] | 0.032
5 | 242.6 to 244.2 °C | O=C(NCC(F)(F)F)c1cccc(-c2nc(=O)c3ccccc3s2)n1 [Example 82, 6-(4-Oxo-4H-1,3-benzothiazin-2-yl)-N-(2,2,2-trifluoroethyl)-2-pyridinecarboxamide] | 0.011
6 | 294.6 to 294.9 °C | NC(=O)c1cccc(-c2nc(=O)c3ccccc3s2)n1 [Example 38, 6-(4-Oxo-4H-1,3-benzothiazin-2-yl)-2-pyridinecarboxamide] | 0.013
7 | 256.5 to 257.2 °C | O=c1nc(-c2ccccn2)sc2cccc(F)c12 [Example 21, 5-Fluoro-2-(2-pyridyl)-4H-1,3-benzothiazine-4-one] | 0.03
8 | 174.5 to 175.3 °C | CN(C)/C=N/S(=O)(=O)CC(C)(C)COc1cccc(-c2nc(=O)c3ccccc3s2)n1 [Example 100, N,N-(Dimethylaminomethylene)-2,2-dimethyl-3-{[6-(4-oxo-4H-1,3-benzothiazin-2-yl)-2-pyridyl]oxy}-1-propanesulfonamide] | 0.036
9 | 145.1 to 145.4 °C | CC(C)(C)OC(=O)NCCCCCCNC(=O)c1cccc(-c2nc(=O)c3ccccc3s2)n1 [Example 106, tert-Butyl [[[6-(4-oxo-4H-1,3-benzothiazin-2-yl)-2-pyridyl]carbonyl]amino]hexylcarbamate] | 0.052
10 | 152.9 to 153.8 °C | CC(C)(C)Sc1cccc(-c2nc(=O)c3ccccc3s2)n1 [Example 128, 2-[6-(tert-Butylthio)-2-pyridyl]-4H-1,3-benzothiazine-4-one] | 0.081
11 | 173.4 to 173.5 °C | CSc1cc(-c2nc(=O)c3ccccc3s2)ccn1 [Example 68, 2-(2-Methylthio-4-pyridyl)-4H-1,3-benzothiazine-4-one] | 0.018
12 | 219.6 °C (dec.) | Cc1ccc(S(=O)(=O)c2cccc(-c3nc(=O)c4ccccc4s3)n2)cc1 [Example 64, 2-{6-[(4-Methylphenyl)sulfonyl]-2-pyridyl}-4H-1,3-benzothiazine-4-one] | 0.052
13 | 174.8 to 175.4 °C | CCC[S+]([O-])c1cccc(-c2nc(=O)c3ccccc3s2)n1 (centres unmarked) [Example 60, 2-(6-Propylsulfinyl-2-pyridyl)-4H-1,3-benzothiazine-4-one] | 0.019
14 | 239.9 to 240.4 °C | O=c1nc(-c2ccccn2)sc2ccc(F)cc12 [Example 20, 6-Fluoro-2-(2-pyridyl)-4H-1,3-benzothiazine-4-one] | 0.038
15 | 208.2 to 208.7 °C | O=c1nc(-c2cccc(CO)n2)sc2ccccc12 [Example 40, 2-[6-(Hydroxymethyl)-2-pyridyl]-4H-1,3-benzothiazine-4-one] | 0.044
16 | 184.4 to 185.8 °C | CN(C(=O)C1CCCCC1)c1cccc(-c2nc(=O)c3ccccc3s2)n1 [Example 115, N-methyl-N-[6-(4-oxo-4H-1,3-benzothiazin-2-yl)-2-pyridyl]cyclohexanecarboxamide] | 0.052
17 | 191.5 to 192.9 °C | CN(C(=O)c1cccs1)c1cccc(-c2nc(=O)c3ccccc3s2)n1 [Example 111, N-Methyl-N-[6-(4-oxo-4H-1,3-benzothiazin-2-yl)-2-pyridyl]-2-thiophenecarboxamide] | 0.037
18 | 225 to 225.2 °C | Cc1ccc2c(=O)nc(-c3ccccn3)sc2c1 [Example 39, 7-Methyl-2-(2-pyridyl)-4H-1,3-benzothiazine-4-one] | 0.037
19 | 240.6 to 240.9 °C | O=c1nc(-c2cnccn2)sc2cc(Cl)ccc12 [Example 30, 7-Chloro-2-(2-pyrazyl)-4H-1,3-benzothiazine-4-one] | 0.012
20 | 207.2 to 207.8 °C | CSc1cccc(-c2nc(=O)c3ccccc3s2)n1 [Example 43, 2-(6-Methylthio-2-pyridyl)-4H-1,3-benzothiazine-4-one] | 0.053
21 | 154.8 °C (dec.) | CN(C)CCSc1cccc(-c2nc(=O)c3ccccc3s2)n1 [Example 133, 2-{[6-[2-(N,N-Dimethylamino)ethyl]thio]-2-pyridyl}-4H-1,3-benzothiazine-4-one] | 0.06
22 | 197.1 to 197.9 °C | O=C(NCc1ccccc1)c1cccc(-c2nc(=O)c3ccccc3s2)n1 [Example 51, N-Benzyl-6-(4-oxo-4H-1,3-benzothiazin-2-yl)-2-pyridinecarboxamide] | 0.034
23 | 246.2 to 246.7 °C | Cc1ccnc(-c2nc(=O)c3ccc(Cl)cc3s2)c1 [Example 29, 7-Chloro-2-(4-methyl-2-pyridyl)-4H-1,3-benzothiazine-4-one] | 0.035
24 | 226 to 226.1 °C | COc1cccc(-c2nc(=O)c3ccccc3s2)n1 [Example 56, 2-(6-Methoxy-2-pyridyl)-4H-1,3-benzothiazine-4-one] | 0.039
25 | 194 to 194.3 °C | CCN(CC)C(=O)c1cccc(-c2nc(=O)c3ccccc3s2)n1 [Example 105, N,N-Diethyl-6-(4-oxo-4H-1,3-benzothiazin-2-yl)-2-pyridinecarboxamide] | 0.028
26 | 232 to 234 °C | O=C(c1cccc(-c2nc(=O)c3ccccc3s2)n1)N1CCCC1 [Example 104] | 0.019
27 | 240.9 to 241 °C | O=c1nc(-c2cccc(OCc3ccccc3)n2)sc2ccccc12 [Example 57, 2-[6-(Benzyloxy)-2-pyridyl]-4H-1,3-benzothiazine-4-one] | 0.033
28 | – | NCCCCCCNC(=O)c1cccc(-c2nc(=O)c3ccccc3s2)n1 [Example 107, N-(6-Aminohexyl)-6-(4-oxo-4H-1,3-benzothiazin-2-yl)-2-pyridinecarboxamide hydrochloride] | 0.012
29 | – | COC(=O)c1ccc(-c2nc(=O)c3ccccc3s2)nc1 [Example 28, Methyl 6-(4-oxo-4H-1,3-benzothiazin-2-yl)nicotinate] | 0.025
